Test results from US12422427B2, “Compounds for treatment of diseases and methods of screening therefor” (Max-Planck-Gesellschaft zur Förderung der Wissenschaften …, priority 2018, dated 2025).
“Also recorded” adds a separate entry of the source.

Legend:
[1] = test system: liquid-like non-membrane bound compartments; conditions: cited from earlier work
[2] = test system: HeLa cells expressing FUS GFP; assay: HeLa cell compound dose responses (FUS GFP, arsenate stress); type: cell-based; conditions: 1 h 1 mM arsenate stress
Procedure: Small dilution steps rather than concentration replicates were selected as it provides greater statistical power from a set number of samples. Final DMSO concentration was 0.08% in all samples, and each plate included at least 12 control wells with 0.08% DMSO. Cytoplasmic FUS droplet number and nuclear/cytoplasm partition of FUS were analysed using custom macros in ImageJ. Nuclei were identified by intensity thresholding of the blue fluorescence image following a 5 px Gaussian blur. Cytoplasmic FUS droplets by intensity thresholding of the green image following a 10 px weight 0.9 unsharp filter masked by the thresholded nuclei, and nuclear FUS droplets by intensity thresholding of the green image following a 5 px weight 0.9 unsharp filter and 10 px rolling ball background subtraction masked to only include thresholded nuclei. The ratio of cytoplasmic FUS drops to nuclei was taken as cytoplasmic FUS droplets per cell per field of view, and p, the ratio of partition of FUS to the nucleus and the cytoplasm, was derived from a=Vn/vt, the ratio of nuclear to total green signal per field of view, where p=a/(1−a). […] Six fields of view were captured and analysed per condition.

[3] = test system: EWSR1, TIAL1, PABPC1, G3BP1; assay: Panel of HeLa lines expressing GFP-labelled stress granule proteins, arsenate stress; type: cell-based; conditions: 1 mM arsenate, 10 μM compound
Procedure: It was anticipated that a useful therapeutic would prevent all PLD-containing stress granule proteins from localising to stress granules. The inventors used 1 mM arsenate to stress a panel of HeLa cell lines expressing GFP fusions of stress granule proteins (EWSR1, TIAL1, PABPC1, G3BP1) with either no treatment or 10 μM lipoic acid or lipoamide.
Compound effects were assessed under a variety of conditions in HeLa or iPS cells expressing wild-type or P525L FUS GFP by live cell imaging. Different combinations of 1 h pre-treatment compound or pre-stress with arsenate followed by 1 h treatment with compound and/or stress with arsenate. Unless otherwise indicated, cells were pre-treated for 1 h using 10 μM compound from 10 mM stock in DMSO (or an equal volume of DMSO control) then stressed for 1 h with 1 mM potassium arsenate still in the presence of compound. GFP fluorescence was imaged by widefield epifluorescence using an inverted Olympus IX71 microscope with an Olympus 100× NA 1.4 Plan Apo oil immersion objective and a CoolSNAP HQ CCD camera (Photometrics), using a DeltaVision climate control unit (37° C., 5% CO2) (Applied Precision). The kinetics of pre-stress followed by treatment was analysed from images captured at 2 min intervals for 100 min, for single time points images were captured after 1 h unless otherwise indicated.

[4] = test system: HeLa cells expressing FUS GFP; assay: Stress granule formation in HeLa FUS GFP cells under different stresses; type: cell-based; conditions: 10 μM; mitochondrial (rotenone), hyperosmotic (sorbitol) or arsenate stress
Procedure: The stressor, arsenate, will react with the thiol groups of lipoamide. Therefore, to exclude the possibility that lipoamide is acting only by removing the stressor, so it was further tested whether lipoic acid can prevent stress granule formation triggered by other stresses than arsenate (an oxidative) stress: Mitochondrial electron transport chain inhibition (rotenone), heat stress (42° C.), hyperosmotic stress (sorbitol, a non-metabolisable sugar), glycolysis inhibition ([…] in the absence of glucose) or serum starvation.
Various cellular stresses were achieved by replacing 1 h 1 mM potassium arsenate treatment with other conditions: 100 μM rotenone (R8875, Sigma Aldrich) from a 1 M stock in DMSO for 2 h (mitochondrial stress). […] Sorbitol (S1876, Sigma Aldrich) from a 4 M stock in H2O for 1 h (osmotic stress). 42° C. in normal growth medium for 30 m (heat stress). […] Appropriate solvent controls were used.

PAB-1 = assay: Protein aggregation in C. elegans: PAB-1; type: in vivo, Caenorhabditis elegans; conditions: liquid culture from L4, scored day 2 of adulthood
Procedure: The effect of lipoic acid on stress granule protein aggregation in vivo was analysed using a C. elegans model for stress granule formation and aggregation. As previously described, fluorescent-tagged PAB-1 forms abundant stress granules and large solid aggregates during aging or upon chronic stress. RHO-1 and KIN-19 also aggregate during aging, but are not RNA binding or stress granule proteins. Three lines were used: Fluorescently tagged PAB-1 (DCD214: N2; uqIs24[pmyo-2::tagrfp::pab 1gene]), KIN-19 (CF3649: N2; muIs 209[pmyo-3::kin-19::tagrfp+ptph-1::GFP] and RHO-1 (DCD13: N2; uqIs9 [pmyo-2::rho-1::tagr fp+ptph-1::gfp]). Each were analysed as below, except DCD13 were maintained at 20° C.
The animals were exposed to lipoic acid in liquid culture in a 96 well plate starting from larval stage L4 in a total volume of 50 μl S-Complete per well (100 mM NaCl, 50 mM Potassium phosphate pH 6, 10 mM potassium citrate, 3 mM MgSO4, 3 mM CaCl2), 5 μg/mL cholesterol, 50 μM ethylenediaminetetraacetic acid (EDTA), 25 μM FeSO4, 10 μM MnCl2, 10 μM ZnSO4, 1 μM CuSO4) supplemented with heat-killed OP50 and 50 μg/ml carbenicillin. […] Toxicity was evaluated from the number of dead or aberrantly small-sized animals.
48 h after switching the L4s from 20° C. to 25° C. […] After immobilization with 2 mM levamisole aggregation was scored using a fluorescent stereo microscope (Leica M165 FC, Plan Apo 2.0× objective). […]

Row | Molecule | concentrations required for in vitro or cellular activity [1] | toxicity at active concentrations [1] | EC50 reducing stress granule number, compared among compounds [2] | localisation of EWSR1, TIAL1, PABPC1, G3BP1 GFP to stress granules [3] | stress granule formation [4] | proportion of animals with aggregation of PAB-1 (PAB-1)
1 | OCCCCCCO [1,6-hexanediol] | 1-10% | rapidly toxic |  |  |  | 
2 | O=C(O)CCCC[C@@H]1CCSS1 [R-(+)-lipoic acid] |  |  | comparable EC50 | localised to stress granules in the absence of treatment, and not in the presence | reduced stress granule formation | dose-dependent decrease; also recorded: strong dose-dependent reduction
3 | S-(−)-lipoic acid |  |  | comparable EC50; also recorded: very similar activity | localised to stress granules in the absence of treatment, and not in the presence | reduced stress granule formation | dose-dependent decrease; also recorded: strong dose-dependent reduction
